These results are taken from patent publication US5723501A, “Pharmaceutical compositions containing 3-IODO-1,2-propanediol having mucolytic activity” (Carter-Wallace, Inc., priority 1996, dated 1998).

For test [1], the system named is tracheal secretion of phenol red in mice. The test is described as follows: Tracheal secretion of phenol red in male mice (Engler and Szelenyi method). The format is in vivo. Particulars: for ED50: Mus musculus, po, 0.5 h, read-out: ED50 (dose stimulating tracheal secretion of phenol red by 50% over the control); for ED50 / effect on tracheal secretion of phenol red, dose dependence / ED50 (dose stimulating tracheal secretion of phenol red by 50% over the control): 30 minutes; for ED50 / ED50 (dose stimulating tracheal secretion of phenol red by 50% over the control): male mice; for Phenol Red Secretion, Treated: 30 min before phenol red i.p., * P<0.05 vs control; for Phenol Red Secretion, Treated / % Change in phenol red secretion: mean ± SFM; for % Change in phenol red secretion: vs control. The source says: Adult male mice weighing 14-40 g were used in this investigation. Animals were acclimatized to the laboratory environment for a minimum of five days prior to use in the experimental procedures. Housing was provided in environmentally controlled quarters in which temperature, humidity and ventilation were regulated based on the needs of the species. Husbandry practices and veterinary care were in accordance with the Guide for Care and Use of Laboratory Animals (NIH Publication No. 85-23). Tracheal secretion in mice, expressed by the amount of phenol red dye secreted into the lumen of the trachea was measured according to the method of Engler and Szelenyi. Male mice were randomly placed into appropriate treatment groups. On each experiment day, one to four mice in a group received orally either vehicle (distilled water or 1% acacia, 0.1 mL/10 g body weight) or a drug. Each drug was tested at a minimum of three different dose levels. Each drug dosage was tested in at least six animals. Drugs were administered orally (0.1 mL/10 g body weight) 30 minutes prior to intraperitoneal injection of phenol red (500 mg/kg: 5% solution in physiological saline, 0.1 mL/10 g body weight). Thirty minutes after phenol red injection the animals were sacrificed by exposure to CO2. The whole trachea was carefully excised and washed in 1.0 mL physiological saline for a period of 30 minutes. Subsequently, 0.1 mL of 1 M NaOH was added to the tracheal washings to stabilize the pH of the lavage fluid. The amount of phenol red was measured photometrically at […] in a Beckman Model 25 spectrophotometer. The amount of phenol red secreted in the tracheal lumen, expressed in μg/10 g body weight/hr, was determined by the formula of Graziani and Cazzulani: [formula] where: S=phenol red secreted per 10 g of body weight per hour (μg/10 g/hr). s=intensity of emission of the phenol red contained in 1.0 mL of tracheal lavage as determined from the standard curve of phenol red (0.5, 1, 5, and 10 μg/mL). V=volume of the tracheal lavage (1.0 mL). W=body weight of the mice expressed in grams. The results were expressed as mean ±S.F.M. Statistical significance was evaluated using the t-test for independent means, where P<0.05 is considered to be significant as compared to the appropriate control. The % increase in tracheal secretion of phenol red by each dose of a drug was determined by using the following formula: [formula] T=tracheal secretion of phenol red (μg/10 g/hr) in treated mice each day. C=tracheal secretion of phenol red (μg/10 g/hr) in untreated mice each day. The line of best fit was calculated from the dose response curve of each drug and the ED50 (mg/kg), i.e. the dose stimulating tracheal secretion of phenol red by 50% over the control level, was determined and 95% confidence limits were also calculated.

Test [2] has as its system citric acid (aerosol)-induced coughing responses in guinea pigs. Particulars: cited from earlier work.
Test [3] concerns mechanical or electrical stimulation in the cat. The conditions noted are these: cited from earlier work.
Test [4] concerns tracheal secretion in mice. Particulars: cited from earlier work.

“And” between values parts separate entries of the source, which are not always exact repeats. Identical values can stand only once. “Also recorded” adds a separate entry of the source.

One may read the ED50 as the dose that gives a 50% effect, or the effect in half of the subjects.

`OCC(O)CI` (stereo not drawn) [3-iodo-1,2-propanediol]: the ED50 in test [1] (p.o.) was 0.75 mg/kg. The “Phenol Red Secretion, Treated” value in test [1] (oral dose 0.3 mg/kg) worked out at 1.02 ± 0.06 μg/10 g/hr; in test [1] (oral dose 1.0 mg/kg), 1.16 ± 0.13 μg/10 g/hr; in test [1] (oral dose 10.0 mg/kg), 1.32 ± 0.16 μg/10 g/hr; in test [1] (oral dose 30.0 mg/kg) it was 1.56 ± 0.23 μg/10 g/hr. For the same compound, the “% Change in phenol red secretion” value in test [1] (oral dose 0.3 mg/kg) is on record as 37.5 ± 8.01%; in test [1] (oral dose 1.0 mg/kg) it was 56.55 ± 17.83%; in test [1] (oral dose 10.0 mg/kg), 77.36 ± 21.67%; in test [1] (oral dose 30.0 mg/kg), 110.45 ± 31.5%. Besides, in test [1] (oral, mice), the “stimulation of tracheal secretion of phenol red” value (“stimulation” below) is listed as “stimulates tracheal secretion of phenol red; also recorded: effective in stimulating tracheal secretion of phenol red”. Further, in test [1] (oral, mice, times as effective as iodinated glycerol), the “effectiveness relative to iodinated glycerol in stimulating tracheal secretion of phenol red” value is “about 90 times”. For the same compound, the “effect on tracheal secretion of phenol red, dose dependence” value (shortened to “effect on tracheal secretion”) in test [1] (p.o., mice) is reported as “dose-dependent increase; also recorded: dose-dependent stimulation”. Also, the “antitussive effect” value in test [2] and in test [3] was “antitussive effect” in each case.
For `CC(C)(C)NCC(O)c1ccc(O)c(CO)c1` (stereo not drawn) [Albuterol], in test [1] (p.o.), the median effective dose (ED50) turned out to be 0.18 mg/kg. Moreover, the “Phenol Red Secretion, Treated” value in test [1] (oral dose 0.1 mg/kg) turned out to be 0.85 ± 0.08 μg/10 g/hr; in test [1] (oral dose 0.3 mg/kg) it was 1.30 ± 0.16 μg/10 g/hr; in test [1] (oral dose 1.0 mg/kg), 1.60 ± 0.09 μg/10 g/hr. Besides, the “% Change in phenol red secretion” value in test [1] (oral dose 0.1 mg/kg) is reported as 20.5 ± 10.6%; in test [1] (oral dose 0.3 mg/kg) it was 78.4 ± 22.9%; in test [1] (oral dose 1.0 mg/kg) it was 118.6 ± 11.6%. The “stimulation” value in test [1] (oral, mice) was “stimulated tracheal secretion of phenol red”. Besides, the “effect on tracheal secretion” value in test [1] (p.o., mice) was “dose-dependent increase”. In addition, the “oral ED50 reported earlier by others” value in test [4] was “about 4 mg/kg”.
`CN(Cc1cc(Br)cc(Br)c1N)C1CCCCC1` [Bromhexine]: the “significant increase in phenol red tracheal secretion” value in test [1] (3 or 30 mg/kg, p.o.) is “not at 3 or 30 mg/kg”. Moreover, the median effective dose (ED50) in test [1] (p.o.) was more than 100 mg/kg. Moreover, the “increase in phenol red tracheal secretion” value in test [1] (only at 100 mg/kg, p.o.) is “significant increase”. Besides, the “Phenol Red Secretion, Treated” value in test [1] (oral dose 3.0 mg/kg) came out at 1.20 ± 0.13 μg/10 g/hr; in test [1] (oral dose 30.0 mg/kg), 0.67 ± 0.10 μg/10 g/hr; in test [1] (oral dose 100.0 mg/kg), 0.90 ± 0.10 μg/10 g/hr. Also, the “% Change in phenol red secretion” value was 20.9 ± 12.9% in test [1] (oral dose 3.0 mg/kg), 0 ± 0% in test [1] (oral dose 30.0 mg/kg) and 40.6 ± 17.0% in test [1] (oral dose 100.0 mg/kg). Moreover, the “effect on tracheal secretion” value in test [1] (p.o., mice) is listed as “weak to moderate nondose-related effect”. Besides, the “bronchosecretogogue activity reported by others” value in test [4] (40 mg/kg, p.o., mice) is reported as “little or no bronchosecretogogue activity”.
`CC(=O)N[C@@H](CS)C(=O)O` [N-acetylcysteine]: in test [1] (p.o.), the 50% effective dose (ED50) stood at 61.8 mg/kg. The “Phenol Red Secretion, Treated” value was 0.66 ± 0.06 μg/10 g/hr in test [1] (oral dose 10.0 mg/kg), 1.00 ± 0.08 μg/10 g/hr in test [1] (oral dose 50.0 mg/kg) and 1.30 ± 0.12 μg/10 g/hr in test [1] (oral dose 200.0 mg/kg). Moreover, the “% Change in phenol red secretion” value in test [1] (oral dose 10.0 mg/kg) came out at 2.3 ± 13.2%; in test [1] (oral dose 50.0 mg/kg) it was 51.6 ± 10.6%; in test [1] (oral dose 200.0 mg/kg), 75.7 ± 1.5%. In addition, the “effect on tracheal secretion” value in test [1] (p.o., mice) is recorded as “dose-dependent increase”.
In the case of `[I-].[K+]` [Potassium Iodide, potassium iodide], the “Phenol Red Secretion, Treated” value is recorded as 0.67 ± 0.07 μg/10 g/hr in test [1] (oral dose 50.0 mg/kg), 1.47 ± 0.15 μg/10 g/hr in test [1] (oral dose 100.0 mg/kg) and 0.96 ± 0.10 μg/10 g/hr in test [1] (oral dose 200.0 mg/kg). Further, the “% Change in phenol red secretion” value in test [1] (oral dose 50.0 mg/kg) was found to be 5.1 ± 11.2%; in test [1] (oral dose 100.0 mg/kg), 45.8 ± 14.2%; in test [1] (oral dose 200.0 mg/kg) it was 49.1 ± 12.2%. Besides, the “stimulation” value in test [1] (oral, mice) is “stimulated tracheal secretion of phenol red”. Besides, the “effect on tracheal secretion” value in test [1] (p.o., mice) was “dose-dependent increase”. Besides, the “ED50 (dose stimulating tracheal secretion of phenol red by 50% over the control)” value in test [1] (p.o.) was ~ 200 mg/kg; in test [1] (p.o., listed as potassium iodide) it was ~ 200 mg/kg and 200 mg/kg. Also, the “oral ED50 reported earlier by others” value in test [4] is given as approximately 4000 mg/kg.
